{
  "source": "patent US20260200939A1",
  "about": "“MOLECULAR GLUE DEGRADER COMPOUNDS AND USES THEREOF” (Novartis AG, priority 2022, published 2026)",
  "data": [
    {"biological_target": "T1, Recombinant RNF126 (Homo sapiens, UniProt Q9BV68)", "T1 construct": "FLAG (C); host or cells: HEK293T", "assay": "RNF126 Binding Assay, gel-based ABPP", "details": "not given", "description": "(§1) RNF126 mammalian expression plasmid with a C-terminal FLAG tag was purchased from Origene (Origene Technologies Inc., RC204986). The plasmid was transformed into NEB 5-alpha Competent E. coli (DH5) cells (NEB product no. C2987H). The following day, a single transformed colony was used to inoculate 50 ml of nutrient rich LB medium containing kanamycin (50 μg/ml) and was incubated at 37° C. overnight, with agitation (250 rpm). A Miniprep (Qiagen) kit was used to isolate the plasmid before sequence verification with appropriate primers.\n(§2) HEK293T cells were grown to 30-50% confluency in DMEM supplemented with 10% FBS (Corning) and maintained at 37° C. with 5% CO2. Immediately before transfection, media was replaced with DMEM containing 5% FBS. Each plate was transfected with 24 μg of overexpression plasmid with 24 μL Lipofectamine 3000 (Invitrogen) in Opti-MEM. After 48 h cells were collected in PBS, lysed by sonication, and batch bound with anti-DYKDDDDK resin (GenScript, L00432) for 2 hours. Lysate and resin were washed with PBS and eluted with 133.33 μg/ml 3×FLAG peptide (ApexBio, A6001) in PBS. Five elutions were performed for 15 minutes each. Elutions were concentrated and the protein was stored in PBS. Concentration and purity was determined using the BCA assay and western blotting.\n(§3) Recombinant RNF126 ([…]) was pre-treated with either DMSO vehicle or covalent ligand at 37° C. for 30 min in 25 μL of PBS, and subsequently treated with of IA-Rhodamine (concentrations designated in figure legends) (Setareh Biotech) at room temperature for 1 h in the dark. The reaction was stopped by addition of 4×reducing Laemmli SDS sample loading buffer (Alfa Aesar). After boiling at 95° C. for 5 min, the samples were separated on precast 4-20% Criterion TGX gels (Bio-Rad). Probe-labeled proteins were analyzed by in-gel fluorescence using a ChemiDoc MP (Bio-Rad).", "units": {"IC50": "nM"}, "values": [
      {"molecule": "COc1ccc(C(=O)/C(C)=C/C(=O)N2CCNCC2)cc1", "note": "[Compound 145, (E)-1-(4-methoxyphenyl)-2-methyl-4-(piperazin-1-yl)but-2-ene-1,4-dione]", "IC50": "> 50000"},
      {"molecule": "COc1ccccc1C(=O)/C=C/C(=O)N1CCNCC1", "note": "[Compound 147, (E)-1-(2-methoxyphenyl)-4-(piperazin-1-yl)but-2-ene-1,4-dione]", "IC50": "1000 to 10000"},
      {"molecule": "O=C(/C=C/C(=O)N1CCNCC1)c1ccccc1F", "note": "[Compound 149, (E)-1-(2-fluorophenyl)-4-(piperazin-1-yl)but-2-ene-1,4-dione]", "IC50": "1000 to 10000"},
      {"molecule": "O=C(/C=C/C(=O)N1CCNCC1)c1ccc(F)cc1", "note": "[Compound 150, (E)-1-(4-fluorophenyl)-4-(piperazin-1-yl)but-2-ene-1,4-dione]", "IC50": "1000 to 10000"},
      {"molecule": "COc1cccc(C(=O)/C=C/C(=O)N2CCN(C(=O)OC(C)(C)C)CC2)c1", "note": "[Compound 156, tert-butyl (E)-4-(4-(3-methoxyphenyl)-4-oxobut-2-enoyl)piperazine-1-carboxylate]", "IC50": "< 100"},
      {"molecule": "Cc1cccc(C(=O)/C=C/C(=O)N2CCN(C(=O)OC(C)(C)C)CC2)c1", "note": "[Compound 157, tert-butyl (E)-4-(4-oxo-4-(m-toly1)but-2-enoyl)piperazine-1-carboxylate]", "IC50": "< 100"},
      {"molecule": "CC(C)(C)OC(=O)N1CCN(C(=O)/C=C/C(=O)c2cccc(C(F)(F)F)c2)CC1", "note": "[Compound 162, tert-butyl (E)-4-(4-oxo-4-(3-(trifluoromethyl)phenyl)but-2-enoyl)piperazine-1-carboxylate]", "IC50": "< 100"},
      {"molecule": "CC(C)(C)OC(=O)N1CCN(C(=O)/C=C/C(=O)c2cccc(Br)c2)CC1", "note": "[Compound 163, tert-butyl (E)-4-(4-(3-bromophenyl)-4-oxobut-2-enoyl)piperazine-1-carboxylate]", "IC50": "< 100"},
      {"molecule": "CC(C)(C)OC(=O)N1CCN(C(=O)/C=C/C(=O)c2ccc(Br)cc2)CC1", "note": "[Compound 164, tert-butyl (E)-4-(4-(4-bromophenyl)-4-oxobut-2-enoyl)piperazine-1-carboxylate]", "IC50": "< 100"},
      {"molecule": "COc1ccc(C(=O)/C=C(\\C)C(=O)N2CCN(C(=O)OC(C)(C)C)CC2)cc1", "note": "[Compound 166, tert-butyl (E)-4-(4-(4-methoxyphenyl)-2-methyl-4-oxobut-2-enoyl)piperazine-1-carboxylate]", "IC50": "10000 to 50000"},
      {"molecule": "CC(C)(C)OC(=O)N1CCN(C(=O)/C=C/C(=O)c2ccc3c(c2)NC(=O)CO3)CC1", "note": "[Compound 401, tert-butyl (E)-4-(4-oxo-4-(3-oxo-3,4-dihydro-2H-benzo[b][1,4]oxazin-6-yl)but-2-enoyl)piperazine-1-carboxylate]", "IC50": "< 100"},
      {"molecule": "CC(C)(C)OC(=O)N1CCN(C(=O)/C=C/C(=O)c2ccc3c(c2)OCC3)CC1", "note": "[Compound 404, tert-butyl (E)-4-(4-(2,3-dihydrobenzofuran-6-yl)-4-oxobut-2-enoyl)piperazine-1-carboxylate]", "IC50": "< 100"},
      {"molecule": "Cc1ccccc1C(=O)/C=C/C(=O)N1CCN(C(=O)OC(C)(C)C)CC1", "note": "[Compound 407, tert-butyl (E)-4-(4-oxo-4-(o-tolyl)but-2-enoyl)piperazine-1-carboxylate]", "IC50": "< 100"},
      {"molecule": "COc1ccc(C(=O)/C=C\\C(=O)N2CCN(C(=O)OC(C)(C)C)CC2)cc1", "note": "[Compound 411, tert-butyl (Z)-4-(4-(4-methoxyphenyl)-4-oxobut-2-enoyl)piperazine-1-carboxylate]", "IC50": "10000 to 50000"},
      {"molecule": "COc1ccc(C(=O)/C=C/C(=O)N2CCN(C(=O)OC(C)(C)C)CC2)cc1F", "note": "[Compound 414, tert-butyl (E)-4-(4-(3-fluoro-4-methoxyphenyl)-4-oxobut-2-enoyl)piperazine-1-carboxylate]", "IC50": "< 100"},
      {"molecule": "CC(C)(C)OC(=O)N1CCN(C(=O)/C=C/C(=O)c2ccccc2C#N)CC1", "note": "[Compound 415, tert-butyl (E)-4-(4-(2-cyanophenyl)-4-oxobut-2-enoyl)piperazine-1-carboxylate]", "IC50": "< 100"}
    ]},
    {"biological_target": "T1, Recombinant RNF126", "assay": "RNF126 Binding Assay, gel-based ABPP", "details": "range with lower bound in nM and upper bound in μM", "description": "as §1, §2, §3", "units": {"IC50": "nM"}, "values": [
      {"molecule": "O=C(/C=C/C(=O)N1CCNCC1)c1ccccc1", "note": "[Compound 152, (E)-1-phenyl-4-(piperazin-1-yl)but-2-ene-1,4-dione]", "IC50": "100 to 1000"},
      {"molecule": "COc1ccc(C(=O)/C=C(\\C#N)C(=O)N2CCN(C(=O)OC(C)(C)C)CC2)cc1", "note": "[Compound 153, tert-butyl (E)-4-(2-cyano-4-(4-methoxyphenyl)-4-oxobut-2-enoyl)piperazine-1-carboxylate]", "IC50": "100 to 1000"},
      {"molecule": "CC(C)(C)OC(=O)N1CCN(C(=O)/C=C/C(=O)c2ccccc2Br)CC1", "note": "[Compound 154, tert-butyl (E)-4-(4-(2-bromophenyl)-4-oxobut-2-enoyl)piperazine-1-carboxylate]", "IC50": "100 to 1000"},
      {"molecule": "CC(C)(C)OC(=O)N1CCN(C(=O)/C=C/C(=O)c2cccc(F)c2)CC1", "note": "[Compound 155, tert-butyl (E)-4-(4-(3-fluorophenyl)-4-oxobut-2-enoyl)piperazine-1-carboxylate]", "IC50": "100 to 1000"},
      {"molecule": "CC(C)(C)OC(=O)N1CCN(C(=O)/C=C/C(=O)c2ccccc2Cl)CC1", "note": "[Compound 161, tert-butyl (E)-4-(4-(2-chlorophenyl)-4-oxobut-2-enoyl)piperazine-1-carboxylate]", "IC50": "100 to 1000"},
      {"molecule": "CC(C)(C)OC(=O)N1CCN(C(=O)/C=C/C(=O)c2ccc3c(c2)OCCO3)CC1", "note": "[Compound 400, tert-butyl (E)-4-(4-(2,3-dihydrobenzo[b][1,4]dioxin-6-y1)-4-oxobut-2-enoy1)piperazine-1-carboxylate]", "IC50": "100 to 1000"},
      {"molecule": "COc1ccc(C(=O)/C=C/C(=O)N2CCN(C(=O)OC(C)(C)C)CC2)cn1", "note": "[Compound 402, tert-butyl (E)-4-(4-(6-methoxypyridin-3-yl)-4-oxobut-2-enoyl)piperazine-1-carboxylate]", "IC50": "100 to 1000"},
      {"molecule": "Cn1cc(C(=O)/C=C/C(=O)N2CCN(C(=O)OC(C)(C)C)CC2)ccc1=O", "note": "[Compound 403, tert-butyl (E)-4-(4-(1-methyl-6-oxo-1,6-dihydropyridin-3-y1)-4-oxobut-2-enoyl)piperazine-1-carboxylate]", "IC50": "100 to 1000"},
      {"molecule": "CC(C)(C)OC(=O)N1CCN(C(=O)/C=C/C(=O)c2ccc3c(c2)CCO3)CC1", "note": "[Compound 405, tert-butyl (E)-4-(4-(2,3-dihydrobenzofuran-5-y1)-4-oxobut-2-enoyl)piperazine-1-carboxylate]", "IC50": "100 to 1000"},
      {"molecule": "Cc1ccc(C(=O)/C=C/C(=O)N2CCN(C(=O)OC(C)(C)C)CC2)cc1", "note": "[Compound 406, tert-butyl (E)-4-(4-oxo-4-(p-tolyl)but-2-enoyl)piperazine-1-carboxylate]", "IC50": "100 to 1000"},
      {"molecule": "C#CCCCCC(=O)N1CCN(C(=O)/C=C/C(=O)c2ccc(OC)cc2)CC1", "note": "[Compound 408, (E)-1-(4-(hept-6-ynoyl)piperazin-1-y1)-4-(4-methoxyphenyl)but-2-ene-1,4-dione]", "IC50": "100 to 1000"},
      {"molecule": "C#CCOCCC(=O)N1CCN(C(=O)/C=C/C(=O)c2ccc(OC)cc2)CC1", "note": "[Compound 409, (E)-1-(4-methoxyphenyl)-4-(4-(3-(prop-2-yn-1-yloxy)propanoyl)piperazin-1-yl)but-2-ene-1,4-dione]", "IC50": "100 to 1000"},
      {"molecule": "COc1ccc(C(=O)/C=C/C(=O)N2CCN(C(=O)OC(C)(C)C)CC2)c(F)c1", "note": "[Compound 412, tert-butyl (E)-4-(4-(2-fluoro-4-methoxyphenyl)-4-oxobut-2-enoyl)piperazine-1-carboxylate]", "IC50": "100 to 1000"},
      {"molecule": "COc1cc(F)ccc1C(=O)/C=C/C(=O)N1CCN(C(=O)OC(C)(C)C)CC1", "note": "[Compound 413, tert-butyl (E)-4-(4-(4-fluoro-2-methoxyphenyl)-4-oxobut-2-enoyl)piperazine-1-carboxylate]", "IC50": "100 to 1000"}
    ]}
  ]
}
